According to patent US7968526B2, “Antisense oligonucleotides directed to ribonucleotide reductase R2 and uses thereof in the treatment of cancer” (Lorus Therapeutics Inc., priority 2003, dated 2011):
“Also recorded” adds a separate entry of the source.

What was measured:
[1] = tested on: LS513 multi-drug resistant colon carcinoma cells; test: LS513 multi-drug resistant colon carcinoma xenograft in SCID mice, combination with CPT-11 (2.8); assay type: in vivo, human cells in mice; settings: SEQ ID NO:1 10 mg/kg i.v. every other day, CPT-11 20 mg/kg/day i.p. 5 days
Experimental: BxPC-3 is a gemcitabine resistant call line. […] Gemcitabine was administered intravenously every three days at a dose of 100 mg/kg. Antitumour activities were estimated by the inhibition of tumour volume, which was measured with caliper. Each point represents mean tumour volume calculated from 10 animals per experimental group. […] Hela S3 is a hydroxyurea resistant cell line. […] Hydroxyurea was administered intraperitoneally every day at a dose of 250 mg/kg for 10 days. Cisplatin was administered intravenously once a week for three weeks at a dose of 4 mg/kg. Antitumour activities were estimated by the inhibition of tumour volume, which was measured with caliper. Each point represents mean tumour volume calculated from 10 animals per experimental group. […] Cisplatin was administered intravenously once a week for three weeks at a dose of 4 mg/kg. Taxol was administered intravenously once a week for three weeks at a dose of 10 mg/kg. Antitumour activities were estimated by the inhibition of tumour volume, which was measured with caliper. Each point represents mean tumour volume calculated from 10 animals per experimental group. […] Taxol was administered i.p. once a week at a dose of 10 mg/kg. Antitumour activities were estimated by the inhibition of tumour volume (FIG. 12A), which was measured with calipers. Each point represents mean tumour volume calculated from 10 animals per experimental group. […] Antitumour activities were estimated by the inhibition of tumour volume, which was measured with caliper. Each point represents mean tumour volume calculated from 9-10 animals per experimental group. […] Antitumour activities were estimated by the inhibition of tumour volume, which was measured with caliper. Each point represents mean tumour volume calculated from 10 animals per experimental group. […] Anti-tumour activity was estimated by the inhibition of tumour volume, which was measured with caliper. Each point represents mean tumour volume calculated from 10 animals per experimental group. […] Antitumour activities were estimated by the inhibition of tumour volume, which was measured with caliper. […]

[2] = tested on: HT-29 human colon cancer cells; test: HT-29 colon tumour growth in CD-1 nude mice, SEQ ID NO:1 alone (3.1); assay type: in vivo, human cells in mice
Experimental: Treatments lasted for 14 days thereafter. Antitumour activities were estimated by the inhibition of tumour volume, which was measured with a caliper on four different occasions over the treatment period. Each point represents mean tumour volume calculated from 5 animals per experimental group. […] Control animals (control) received saline alone for the same period. At the end of the treatments, the animals were sacrificed, tumours were excised and their weights were measured. Each bar represents mean tumour weight calculated from 6 animals per experimental group. […] Treatments lasted for 24 days thereafter. Antitumour activities were estimated by the inhibition of tumour volume, which was measured with a caliper at two-day intervals over the treatment period. Each point represents mean tumour volume calculated from 4 animals per experimental group. […] Treatments lasted for 24 days thereafter. Antitumour activities were estimated by the inhibition of tumour volume, which was measured with a caliper at two-day intervals over the treatment period. Each point represents mean tumour volume calculated from 4 animals per experimental group. […] Treatments lasted for 22 days thereafter. […] Each point represents mean tumour volume calculated from 5 animals per experimental group. […] Treatments lasted for 14 days thereafter. Antitumour activities were estimated by the inhibition of tumour volume, which was measured with a caliper on four different occasions over 16-day period. Each point represents mean tumour volume calculated from 5 animals per experimental group. […] Two different batches of SEQ ID NO:1, synthesized at different times (designated as batch 1 and batch 2), were tested to detect possible batch-specific effects. […] Treatments lasted for 34 days thereafter. Antitumour activities were estimated by the inhibition of tumour volume, which was measured with a caliper at two-day intervals over the treatment period. Each point represents mean tumour volume calculated from 5 animals per experimental group. […] Treatments lasted for 30 days thereafter. Antitumour activities were estimated by the inhibition of tumour volume, which was measured with a caliper at various time intervals over the span of 30 days. Each point represents mean tumour volume calculated from 6 animals per experimental group. […] All treatments were stopped at day 36. Antitumour activities were estimated by the inhibition of tumour volume, which was measured with a caliper. Each point represents mean tumour volume calculated from 5 animals per experimental group. […] All treatments were stopped at day 52. Mice treated with saline or one of the three chemotherapeutic agents were sacrificed at day 80 because the tumour became too large. Mice treated with SEQ ID NO:1 were kept for 16 days further to observe possible resurgence of resistant tumour growth. Antitumour activities were estimated by the inhibition of tumour volume, which was measured with a caliper.

[3] = Pharmacokinetics in the monkey, 21 day continuous intravenous infusion; assay type: in vivo
Experimental: The toxicokinetics and tissue distribution of SEQ ID NO:1 (and related oligonucleotide metabolites obtained from exonuclease-mediated chain shortening) were determined in rats and monkeys. In addition to investigating the pharmacokinetics and tissue distribution of SEQ ID NO:1, the purpose of the studies was to correlate adverse effects in the animal studies to the concentrations of SEQ ID NO:1 (and metabolites) in tissue and blood. A capillary electrophoresis (CE) method was used to measure the concentrations of SEQ ID NO:1 (and metabolites) in plasma and tissues.
SEQ ID NO:1 was administered to monkeys by continuous intravenous infusion for 21 days followed by a 21-day recovery period. Twenty-eight monkeys were administered one of the following dose levels; vehicle control, 2, 10, or 50 mg/kg/day (24.6, 123, and 615 mg/m^2/day). Toxicokinetic samples were collected prior to the initiation of infusion, approximately 8, 24, 48, and 96 hours following the start of infusion, and on Day 20 prior to the change in dose-syringes.

[4] = 10 mg/kg/day continuous i.v. infusion 21 days
[5] = 50 mg/kg/day continuous i.v. infusion 21 days

In the case of “5′-GGCTAAATCGCTCCACCAAG-3′ (all phosphorothioate, sugars by position and methylation of C not given here) [SEQ ID NO: 1, fully phosphorothioated antisense oligonucleotide that hybridizes to the coding region of R2 mRNA]”, the “Tumour weight as % of saline control” value ([1]; LS513 (colon) multi-drug resistant (CPT-11 sensitive), SCID) is reported as 49%, the “Antitumour effect (FIG. 16)” value ([1]; LS513, SCID mice) is reported as “significant delay of tumour growth compared to saline control; also recorded: as effective as CPT-11” and the “Inhibitory effect on tumour growth (tumour volume, FIG. 17A)” value ([2]; HT-29, CD-1 nude mice, 10 mg/kg i.v. every other day, 14 days) is reported as “statistically significant inhibitory effects”. For the same substance, the “Inhibitory effect on tumour growth (tumour weight, FIG. 17B)” value ([2]; HT-29, CD-1 nude mice, 0.4-6.0 mg/kg i.v. every other day for 14 days) was “statistically significant inhibitory effects on the growth of human colon adenocarcinoma in a dose-dependent manner”, the “Inhibition of tumour weight” value ([2]; Human Colon Adenocarcinoma) was ~80% and the “Inhibition of tumour size” value ([2]; Human Colon Adenocarcinoma in CD-1 nude mice, Day 18 after tumour implantation) was “approximately 80% on Day 18 after tumour”. For the same substance, the “Dose dependence of tumour weight” value ([2]; in vivo) was “Dose-dependent decrease in tumour weight in”, the Plasma concentrations ([3]; 2 mg/kg dose group) was “could not be detected” and the “median Tmax” value ([3]; 10 mg/kg dose group) was 20 days. For the same substance, the Cl [3, 4] was 3.47 ± 0.867 mL/min/kg, the Cmax [3, 4] was 2.94 µg/mL and the Css [3, 4] was 2.10 ± 0.48 µg/mL. For the same substance, the “Tmax (mean)” value [3, 4] was 13.5 days, the “median Tmax” value ([3]; 50 mg/kg dose group) was 1 days and the Cl [3, 5] was 2.17 ± 0.267 mL/min/kg. For the same substance, the Cmax [3, 5] was 20.3 µg/mL, the Css [3, 5] was 16.2 ± 2.2 µg/mL and the “Tmax (mean)” value [3, 5] was 7.12 days. The “Time to steady state plasma concentration” value ([3]; continuous i.v. infusion) was “steady state by eight hours after dosing”.
